What was measured:
Assay type in all cases: physicochemical
[1] = Gravimetric solubility of 2:1 β-GPA fumarate in solvents
Description: Solubility of β-GPA fumarate was measured gravimetrically in fifteen different solvents and solvent mixtures at 15 and 45° C. About 100 mg of the compound was dispensed in ten volumes (1 mL) of the solvent/solvent mixture and slurried for 48 hours. Table 24 represents the solubility of β-GPA fumarate in different solvents. After 48 hours the vials were centrifuged. The supernatant was collected and left for slow evaporation under vacuum at 45° C. and solubility was determined. The solids obtained after centrifugation and evaporation were analyzed by XRPD.

[2] = Flowability measurement using Hanson Flodex unit
Description: Method: A cylindrical vessel is secured to the stand and above that a funnel is also secured such that the bottom of the funnel is close to the vessel. A powder load of ≈50-60 g is then poured through the funnel into the middle of the cylinder. The lever device is pulled to open the hole in the disk quickly and without vibration. If a powder slowly flows through the small-diameter holes, leaving a cavity shaped like an upside-down, truncated cone, the test is considered positive. If a powder flocculates in bulk and falls abruptly, forming a cylindrical cavity, the test is considered negative. […] If the experiment is negative, the powder is tested again with a disk having a larger hole.

[3] = Carr's index and Hausner ratio (predicted flowability); conditions: Table 18, scale of Table 17
Bulk and tapped density = assay: Bulk and tapped density
Description: The bulk density of β-GPA oxalate (Pattern 18 B), succinate (Pattern 15A), and fumarate (Pattern 7A) were determined by pouring in a known amount of salt (g) into a measuring cylinder. The volume (Vi) occupied by the salt was recorded and the bulk density (ρB) was determined using equation 1. ρB=g/Vi (1)
The tapped densities of the salts were determined using a Tap density analyzer. A known amount of salt was poured (g) into a measuring cylinder and the initial volume was recorded and tapped using a Tap density analyzer. The final volume (Vf) after tapping was recorded and the tapped density (ρT) was calculated by using equation 2. ρT=g/Vf (2)

[4] = Temperature cycling experiments of 2:1 β-GPA fumarate
Description: The following (Table 26) experiments were performed to isolate possible polymorphic forms of 2:1 β-GPA fumarate.

[5] = Carr's index and Hausner ratio (predicted flowability)
Description: The flow properties of β-GPA are sub-optimal. The bulk density is 0.389 g/cc and the tapped density is 0.627 g/cc. These measurements can be used to calculate the Carr's index and Hausner ratio for a substance. The Carr's index and Hausner ratio are indicators of flowability of a powder. As known in the art, e.g., as described in Carr R. L. Chem. Eng. 1965, 72, 163-168, the relationship to flowability of a powder to the Carr's index and Hausner ratio is based on the scale shown in Table 6 below.
Carr's index or Carr's compressibility index (C) is an indication of the compressibility of a powder. It can be calculated using the equation below: Carr's index (C)=100(Vi−Vf)/Vi (3) A Carr's index greater than 25 is considered to be an indication of poor flowability while a value below 15 is an indication of good flowability.
The Hausner ratio is a number that is correlated to the flowability of a powder or granular material. It is calculated by using the equation below: Hausner ratio=Vi/Vf (4)

[6] = Solid form stability of 2:1 β-GPA fumarate at various temperature/humidity conditions (XRPD); conditions: for XRPD: a week
Description: The solid form stability of β-GPA fumarate was studied at various temperature/humidity conditions as listed in Table 23 for a week using saturated salt solution chambers. The samples were analyzed by XRPD after a week.

[7] = Dynamic vapor sorption (DVS) with XRPD of the post-DVS sample; conditions: for solid form by XRPD after the DVS experiment: post DVS sample
Description: Samples were analyzed using an Aquadyne DVS-2 gravimetric water sorption analyzer. The relative humidity was adjusted between 2-95% and the weight of the sample was continuously monitored and recorded.
[…]: β-GPA maleate (1:1) Form II, β-GPA fumarate (1:1), β-GPA maleate (2:1), β-GPA succinate (2:1) and β-GPA oxalate (1:1) were analyzed by DVS experiment followed by XRPD analysis of the sample at the end of the experiment.
Sample 2162-64-1 was analyzed by DVS in triplicate and the post DVS samples were characterized by XRPD to identify the form at the end of the experiment.

[8] = calculated from bulk and tapped volumes

- Solubility ([1]; Acetone, 15° C.): <1000 µg/mL
- Solubility ([1]; Acetone, 45° C.): <1000 µg/mL
- Solubility ([1]; Acetone:H2O (9:1), 15° C.): 2500 µg/mL
- Solubility ([1]; Acetone:H2O (9:1), 45° C.): 4100 µg/mL
- Solubility ([1]; DCM, 15° C.): <1000 µg/mL
- Solubility ([1]; DCM, 45° C.): 500 µg/mL
- Solubility ([1]; EtOAc, 15° C.): <1000 µg/mL
- Solubility ([1]; EtOAc, 45° C.): <1000 µg/mL
- Solubility ([1]; EtOH, 15° C.): <1000 µg/mL
- Solubility ([1]; EtOH, 45° C.): <1000 µg/mL
- Solubility ([1]; H2O:MeOH:IPA (3:5.5:5), 15° C.): <1000 µg/mL
- Solubility ([1]; H2O:MeOH:IPA (3:5.5:5), 45° C.): <1000 µg/mL
- Solubility ([1]; Heptane, 15° C.): <1000 µg/mL
- Solubility ([1]; Heptane, 45° C.): <1000 µg/mL
- Solubility ([1]; IPA, 15° C.): <1000 µg/mL
- Solubility ([1]; IPA, 45° C.): <1000 µg/mL
- Solubility ([1]; IPA:H2O (9:1), 15° C.): 1640 µg/mL
- Solubility ([1]; IPA:H2O (9:1), 45° C.): 2100 µg/mL
- Solubility ([1]; MeCN, 15° C.): <1000 µg/mL
- Solubility ([1]; MeCN, 45° C.): <1000 µg/mL
- Solubility ([1]; MeOH, 15° C.): ~1000 µg/mL
- Solubility ([1]; MeOH, 45° C.): 2730 µg/mL
- Solubility ([1]; MeOH:H2O (9:1), 15° C.): 9200 µg/mL
- Solubility ([1]; MeOH:H2O (9:1), 45° C.): 11200 µg/mL
- Solubility ([1]; TBME, 15° C.): 3000 µg/mL
- Solubility ([1]; TBME, 45° C.): 28900 µg/mL
- Solubility ([1]; THF:H2O (9:1), 15° C.): 2080 µg/mL
- Solubility ([1]; THF:H2O (9:1), 45° C.): 4120 µg/mL
- Solubility ([1]; Water, 15° C.): 30000 µg/mL
- Solubility ([1]; Water, 45° C.): >100000 µg/mL
- XRPD analysis of the precipitates after 48 hours slurries ([1]; fifteen solvents and solvent mixtures at 15 and 45° C.): no form transformations
- Did solid pass? ([2]; Disc pore size 4 mm): No
- Did solid pass? ([2]; Disc pore size 5 mm): Yes
- Did solid pass? ([2]; Disc pore size 6 mm): Yes
- Did solid pass? ([2]; Disc pore size 12 mm): Yes
- Flow character [3]: Excellent (1-10)
- Bulk density (Bulk and tapped density): 0.576 g/cc
- Tapped density (Bulk and tapped density): 0.613 g/cc
- Result (XRPD) ([4]; 50° C. 2 hours, RT, 50° C. 48 hours): Pattern 7A
- Result (XRPD) ([4]; dry ice-acetone 30 minutes, RT): Pattern 7A
- Result (XRPD) ([4]; heated to 150° C. and brought to room temperature, cycle repeated three times): Pattern 7A
- Result (XRPD) ([4]; vacuum oven 130° C. 2 hours, RT, 130° C. 48 hours): Pattern 7A
- Carr's index [5, 8]: 5.9
- Hausner ratio [5, 8]: 1.063
- Flow character ([5]; predicted, scale of Table 6 (Carr's index)): Excellent (1-10)
- XRPD ([6]; 20° C., 43% relative humidity): Pattern 7A
- XRPD ([6]; 20° C., 59% relative humidity): Pattern 7A
- XRPD ([6]; 20° C., 73% relative humidity): Pattern 7A
- XRPD ([6]; 20° C., >95% relative humidity): Pattern 7A
- XRPD ([6]; 40° C., 82% relative humidity): Pattern 7A
- XRPD ([6]; 60° C., 50% relative humidity): Pattern 7A
- XRPD ([6]; 60° C., 80% relative humidity): Pattern 7A
- solid form stability ([6]; RH >95% at 20° C.): stable
- moisture uptake during the DVS experiment [7]: less than 0.1%
- solid form by XRPD after the DVS experiment ([7]; listed as 2162-64-1): identical to β-GPA fumarate (Pattern 7A)
SMILES: N=C(N)NCCC(=O)O.N=C(N)NCCC(=O)O.O=C(O)/C=C/C(=O)O [β-GPA fumarate (2:1)]
- XRPD pattern ([6]; RH >95% at room temperature, 48 hours): retain its original XRPD pattern (Pattern 7A)
- solid form by XRPD after the DVS experiment ([7]; listed as 2:1 fumarate salt): did not exhibit any dissociation of the salt

Source: US9884813B1, “Pharmaceutically acceptable salts of B-guanidinopropionic acid with improved properties and uses thereof” (Rgenix, Inc., priority 2017, dated 2018)
